Reference: ChEMBL document CHEMBL3046319, “PCR-RFLP detection of the E198A mutation conferring resistance to benzimidazoles in field isolates of Monilinia laxa from Greece” (Crop Prot, 2012)
Converted amounts (≈) assume the structure as drawn. The source made the active and inactive calls. The rule behind the calls is not given here.

Columns and labels:
Monilinia laxa [1] = assay: Fungicidal activity against Monilinia laxa isolate KX2 assessed as reduction in mycelial growth rate at 1 to 10 ug/ml at 31 degC after 5 days; format: functional, organism-based
Monilinia laxa [2] = assay: Fungicidal activity against Monilinia laxa isolate KX1 assessed as reduction in mycelial growth rate at 25 degC after 4 days; format: functional, organism-based; settings: isolate KX1, 96 h
Monilinia laxa [3] = assay: Fungicidal activity against Monilinia laxa isolate MLP4 assessed as reduction in mycelial growth rate at 1 to 10 ug/ml at 31 degC after 5 days; format: functional, organism-based
Monilinia laxa [4] = assay: Fungicidal activity against Monilinia laxa isolate MLK24 assessed as reduction in mycelial growth rate at 25 degC after 4 days; format: functional, organism-based; settings: isolate MLK24, 96 h
Monilinia laxa [5] = assay: Fungicidal activity against Monilinia laxa isolate MLC2 assessed as reduction in mycelial growth rate at 1 to 10 ug/ml at 28 degC after 8 days; format: functional, organism-based
Monilinia laxa [6] = assay: Fungicidal activity against Monilinia laxa isolate MLX5 assessed as reduction in mycelial growth rate at 1 to 10 ug/ml at 28 degC after 8 days; format: functional, organism-based
Monilinia laxa [7] = assay: Fungicidal activity against Monilinia laxa isolate MLBO5 assessed as mean mycelial colony diameter at 25 degC after 4 days; format: functional
Monilinia laxa [8] = assay: Fungicidal activity against Monilinia laxa isolate MLAl8 assessed as reduction in mycelial growth rate at 1 to 10 ug/ml at 31 degC after 5 days; format: functional, organism-based
Monilinia laxa [9] = assay: Fungicidal activity against Monilinia laxa isolate MLBO2 assessed as mean number of conidia produced in the colony at 25 degC after 12 days by haemocytometer; format: functional
Monilinia laxa [10] = assay: Fungicidal activity against Monilinia laxa isolate MLK10 assessed as reduction in mycelial growth rate at 25 degC after 4 days; format: functional, organism-based; settings: isolate MLK10, 96 h
Monilinia laxa [11] = assay: Fungicidal activity against Monilinia laxa isolate MLC3 assessed as reduction in mycelial growth rate at 1 to 10 ug/ml at 28 degC after 8 days; format: functional, organism-based
Monilinia laxa [12] = assay: Fungicidal activity against Monilinia laxa isolate MLK12 assessed as virulence in prune fruits assessed as virulence treated 10 min prior to mycelial inoculation at 24 degC after 10 days relative to isolate MLX1by pathogenicity bioassay; format: functional
Monilinia laxa [13] = assay: Fungicidal activity against Monilinia laxa isolate MLG1 assessed as mycelial growth at 1 ug/ml at 25 degC after 4 days; format: functional
Monilinia laxa [14] = assay: Fungicidal activity against Monilinia laxa isolate MLP2 assessed as mean number of conidia produced in the colony at 25 degC after 12 days by haemocytometer; format: functional
Monilinia laxa [15] = assay: Fungicidal activity against Monilinia laxa isolate MLP2 assessed as reduction in mycelial growth rate at 25 degC after 4 days; format: functional, organism-based; settings: isolate MLP2, 96 h
Monilinia laxa [16] = assay: Fungicidal activity against Monilinia laxa isolate MLB1 assessed as reduction in mycelial growth rate at 1 to 10 ug/ml at 28 degC after 8 days; format: functional, organism-based
Monilinia laxa [17] = assay: Fungicidal activity against Monilinia laxa isolate MLC6 assessed as reduction in mycelial growth rate at 25 degC after 4 days; format: functional, organism-based; settings: isolate MLC6, 96 h
Monilinia laxa [18] = assay: Fungicidal activity against Monilinia laxa isolate MLBO7 assessed as reduction in mycelial growth rate at 1 to 10 ug/ml at 31 degC after 5 days; format: functional, organism-based
Monilinia laxa [19] = assay: Fungicidal activity against Monilinia laxa isolate KX1 assessed as reduction in mycelial growth rate at 1 to 10 ug/ml at 31 degC after 5 days; format: functional, organism-based
Monilinia laxa [20] = assay: Fungicidal activity against Monilinia laxa isolate MLKS1 assessed as reduction in mycelial growth rate at 1 to 10 ug/ml at 31 degC after 5 days; format: functional, organism-based
Monilinia laxa [21] = assay: Fungicidal activity against Monilinia laxa isolate MLC2 assessed as mycelial growth at 1 ug/ml at 25 degC after 4 days; format: functional
Monilinia laxa [22] = assay: Fungicidal activity against Monilinia laxa isolate KX5 assessed as reduction in mycelial growth rate at 1 to 10 ug/ml at 28 degC after 8 days; format: functional, organism-based
Monilinia laxa [23] = assay: Fungicidal activity against Monilinia laxa isolate MLA1 assessed as mean mycelial colony diameter at 25 degC after 4 days; format: functional
Monilinia laxa [24] = assay: Fungicidal activity against Monilinia laxa isolate KX4 assessed as reduction in mycelial growth rate at 25 degC after 4 days; format: functional, organism-based; settings: isolate KX4, 96 h
Monilinia laxa [25] = assay: Fungicidal activity against Monilinia laxa isolate MLC5 assessed as reduction in mycelial growth rate at 1 to 10 ug/ml at 31 degC after 5 days; format: functional, organism-based
Monilinia laxa [26] = assay: Fungicidal activity against Monilinia laxa isolate MLK12 assessed as mean number of conidia produced in the colony at 25 degC after 12 days by haemocytometer; format: functional
Monilinia laxa [27] = assay: Fungicidal activity against Monilinia laxa isolate MLK1 assessed as virulence in prune fruits assessed as virulence treated 10 min prior to mycelial inoculation at 24 degC after 10 days relative to isolate MLX1by pathogenicity bioassay; format: functional
Monilinia laxa [28] = assay: Fungicidal activity against Monilinia laxa isolate KX3 assessed as reduction in mycelial growth rate at 1 to 10 ug/ml at 31 degC after 5 days; format: functional, organism-based
Monilinia laxa [29] = assay: Fungicidal activity against Monilinia laxa isolate MLK1 assessed as mean number of conidia produced in the colony at 25 degC after 12 days by haemocytometer; format: functional
Monilinia laxa [30] = assay: Fungicidal activity against Monilinia laxa isolate MLK12 assessed as mean mycelial colony diameter at 25 degC after 4 days; format: functional
Monilinia laxa [31] = assay: Fungicidal activity against Monilinia laxa isolate MLK4 assessed as reduction in mycelial growth rate at 25 degC after 4 days; format: functional, organism-based; settings: isolate MLK4, 96 h
Monilinia laxa [32] = assay: Fungicidal activity against Monilinia laxa isolate MLX5 assessed as mean mycelial colony diameter at 25 degC after 4 days; format: functional
Monilinia laxa [33] = assay: Fungicidal activity against Monilinia laxa isolate MLC2 assessed as reduction in mycelial growth rate at 1 to 10 ug/ml at 25 to 28 degC; format: functional, organism-based
Monilinia laxa [34] = assay: Fungicidal activity against Monilinia laxa isolate MLNS1 assessed as reduction in mycelial growth rate at 25 degC after 4 days; format: functional, organism-based; settings: isolate MLNS1, 96 h
Monilinia laxa [35] = assay: Fungicidal activity against Monilinia laxa isolate MLK12 assessed as reduction in mycelial growth rate at 1 to 10 ug/ml at 28 degC after 8 days; format: functional, organism-based
Monilinia laxa [36] = assay: Fungicidal activity against Monilinia laxa isolate MLNS2 assessed as reduction in mycelial growth rate at 1 to 10 ug/ml at 28 degC after 8 days; format: functional, organism-based
Monilinia laxa [37] = assay: Fungicidal activity against Monilinia laxa isolate MLC2 assessed as virulence in prune fruits assessed as virulence treated 10 min prior to mycelial inoculation at 24 degC after 10 days relative to isolate MLX1by pathogenicity bioassay; format: functional
Monilinia laxa [38] = assay: Fungicidal activity against Monilinia laxa isolate MLBO1 assessed as reduction in mycelial growth rate at 25 degC after 4 days; format: functional, organism-based; settings: isolate MLBO1, 96 h
Monilinia laxa [39] = assay: Fungicidal activity against Monilinia laxa isolate MLG2 assessed as reduction in mycelial growth rate at 25 degC after 4 days; format: functional, organism-based; settings: isolate MLG2, 96 h
Monilinia laxa [40] = assay: Fungicidal activity against Monilinia laxa isolate MLAl8 assessed as reduction in mycelial growth rate at 1 to 10 ug/ml at 25 to 28 degC; format: functional, organism-based
Monilinia laxa [41] = assay: Fungicidal activity against Monilinia laxa isolate MLK4A assessed as reduction in mycelial growth rate at 25 degC after 4 days; format: functional, organism-based; settings: 96 h
Monilinia laxa [42] = assay: Fungicidal activity against Monilinia laxa isolate MLC1 assessed as reduction in mycelial growth rate at 25 degC after 4 days; format: functional, organism-based; settings: isolate MLC1, 96 h

Q: With `COC(=O)Nc1nc2ccccc2[nH]1` [CARBENDAZIM] as the compound, how does the inhibition (Monilinia laxa [1]) read?
A: Active

Q: And the EC50 (Monilinia laxa [2])?
A: 0.06 µg/mL (≈ 0.314 µM)

Q: What about the inhibition (Monilinia laxa [3]) of the same compound?
A: Active

Q: And the EC50 (Monilinia laxa [4])?
A: 0.02 µg/mL (≈ 0.105 µM)

Q: What about the inhibition (Monilinia laxa [5]) of the same compound?
A: inactive

Q: And the inhibition (Monilinia laxa [6])?
A: inactive

Q: And the Activity (Monilinia laxa [7])?
A: 29.5 mm

Q: What about the inhibition (Monilinia laxa [8]) of the same compound?
A: Active

Q: And the Activity (Monilinia laxa [9])?
A: 3.54 /cm2

Q: What about the EC50 (Monilinia laxa [10]) of the same compound?
A: 0.07 µg/mL (≈ 0.366 µM)

Q: And the inhibition (Monilinia laxa [11])?
A: inactive

Q: And the Activity (Monilinia laxa [12])?
A: 99.2%

Q: What about the Activity (Monilinia laxa [13]) of the same compound?
A: 0%

Q: And the Activity (Monilinia laxa [14])?
A: 4.15 /cm2

Q: And the EC50 (Monilinia laxa [15])?
A: 0.06 µg/mL (≈ 0.314 µM)

Q: What about the inhibition (Monilinia laxa [16]) of the same compound?
A: inactive

Q: And the EC50 (Monilinia laxa [17])?
A: 0.12 µg/mL (≈ 0.628 µM)

Q: What about the inhibition (Monilinia laxa [18]) of the same compound?
A: Active

Q: What about the inhibition (Monilinia laxa [19]) of the same compound?
A: Active

Q: And the inhibition (Monilinia laxa [20])?
A: Active

Q: What about the Activity (Monilinia laxa [21]) of the same compound?
A: 98.28%

Q: And the inhibition (Monilinia laxa [22])?
A: inactive

Q: What about the Activity (Monilinia laxa [23]) of the same compound?
A: 27.1 mm

Q: And the EC50 (Monilinia laxa [24])?
A: > 50 µg/mL

Q: What about the inhibition (Monilinia laxa [25]) of the same compound?
A: Active

Q: What about the Activity (Monilinia laxa [26]) of the same compound?
A: 4.7 /cm2

Q: And the Activity (Monilinia laxa [27])?
A: 97.77%

Q: And the inhibition (Monilinia laxa [28])?
A: Active

Q: What about the Activity (Monilinia laxa [29]) of the same compound?
A: 6.55 /cm2

Q: What about the Activity (Monilinia laxa [30]) of the same compound?
A: 31 mm

Q: And the EC50 (Monilinia laxa [31])?
A: > 50 µg/mL

Q: And the Activity (Monilinia laxa [32])?
A: 28.3 mm

Q: What about the inhibition (Monilinia laxa [33]) of the same compound?
A: inactive

Q: What about the EC50 (Monilinia laxa [34]) of the same compound?
A: > 50 µg/mL

Q: What about the inhibition (Monilinia laxa [35]) of the same compound?
A: inactive

Q: What about the inhibition (Monilinia laxa [36]) of the same compound?
A: inactive

Q: And the Activity (Monilinia laxa [37])?
A: 98.52%

Q: And the EC50 (Monilinia laxa [38])?
A: 0.11 µg/mL (≈ 0.575 µM)

Q: And the EC50 (Monilinia laxa [39])?
A: 0.08 µg/mL (≈ 0.418 µM)

Q: And the inhibition (Monilinia laxa [40])?
A: inactive

Q: And the EC50 (Monilinia laxa [41])?
A: 0.12 µg/mL (≈ 0.628 µM)

Q: What about the EC50 (Monilinia laxa [42]) of the same compound?
A: 0.03 µg/mL (≈ 0.157 µM)
